Test results reported in patent US8450319B2, “Pyrrolopyridazinone compound” (Ube Industries, Ltd., priority 2006, dated 2013).

SMILES | melting point
N#Cc1ccccc1Cc1c(-c2ccc(OC(F)F)c(OC3CC3)c2)[nH]c2cn[nH]c(=O)c12 [Example 25, 3-(2-Cyanobenzyl)-2-(3-cyclopropoxy-4-difluoromethoxyphenyl)-1,5-dihydropyrrolo[2,3-d]pyridazin-4-one] | > 300 °C
O=c1[nH]ncc2[nH]c(-c3ccc(OC(F)F)c(OC4CC4)c3)c(-c3cn[nH]c3)c12 [Example 18, 2-(3-Cyclopropoxy-4-difluoromethoxyphenyl)-3-(4-pyrazolyl)-1,5-dihydropyrrolo[2,3-d]pyridazin-4-one] | 294 to 297 °C
CC(C)Oc1cc(-c2cc3c(=O)[nH]ncc3[nH]2)ccc1OC(F)F [Example 39, 2-(4-Difluoromethoxy-3-isopropoxyphenyl)-1,5-dihydropyrrolo[2,3-d]pyridazin-4-one] | 269 to 273 °C
O=c1[nH]ncc2[nH]c(-c3ccc(OC(F)F)c(OC4CCC4)c3)c(Cl)c12 [Example 32, 3-Chloro-2-(3-cyclobutoxy-4-difluoromethoxyphenyl)-1,5-dihydropyrrolo[2,3-d]pyridazin-4-one] | 273 to 275 °C
CC(C)c1c(-c2ccc(OC(F)F)c(OC3CC3)c2)[nH]c2cn[nH]c(=O)c12 [Example 7, 2-(3-Cyclopropoxy-4-difluoromethoxyphenyl)-3-isopropyl-1,5-dihydropyrrolo[2,3-d]pyridazin-4-one] | 265 to 267 °C
COc1cccc(Cc2c(-c3ccc(OC(F)F)c(OC4CC4)c3)[nH]c3cn[nH]c(=O)c23)n1 [Example 28, 2-(3-Cyclopropoxy-4-difluoromethoxyphenyl)-3-(6-methoxy-2-pyridylmethyl)-1,5-dihydropyrrolo[2,3-d]pyridazin-4-one] | 224 to 226 °C
COc1ccc(-c2[nH]c3cn[nH]c(=O)c3c2Cl)cc1OC(C)C [Example 48, 3-Chloro-2-(3-isopropoxy-4-methoxyphenyl)-1,5-dihydropyrrolo[2,3-d]pyridazin-4-one] | 291 to 299 °C
N#Cc1cccc(Cc2c(-c3ccc(OC(F)F)c(OC4CC4)c3)[nH]c3cn[nH]c(=O)c23)c1 [Example 26, 3-(3-Cyanobenzyl)-2-(3-cyclopropoxy-4-difluoromethoxyphenyl)-1,5-dihydropyrrolo[2,3-d]pyridazin-4-one] | 130 to 135 °C
CCC(CC)OCc1c(-c2ccc(OC(F)F)c(OC3CC3)c2)[nH]c2cn[nH]c(=O)c12 [Example 65, 2-(3-Cyclopropoxy-4-difluoromethoxyphenyl)-3-(1-ethylpropoxymethyl)-1,5-dihydropyrrolo[2,3-d]pyridazin-4-one] | 133 to 162 °C
CCCCCc1c(-c2ccc(OC(F)F)c(OC3CC3)c2)[nH]c2cn[nH]c(=O)c12 [Example 68, 2-(3-Cyclopropoxy-4-difluoromethoxyphenyl)-3-pentyl-1,5-dihydropyrrolo[2,3-d]pyridazin-4-one] | 191 to 193 °C
COc1ccc(-c2[nH]c3cn[nH]c(=O)c3c2Cl)cc1OCC1CC1 [Example 47, 3-Chloro-2-(3-cyclopropylmethoxy-4-methoxyphenyl)-1,5-dihydropyrrolo[2,3-d]pyridazin-4-one] | 256 to 258 °C
COc1ccc(-c2[nH]c3cn[nH]c(=O)c3c2Cl)cc1OC1CCC1 [Example 45, 3-Chloro-2-(3-cyclobutoxy-4-methoxyphenyl)-1,5-dihydropyrrolo[2,3-d]pyridazin-4-one] | 285 to 287 °C
COc1ccc(-c2[nH]c3cn[nH]c(=O)c3c2Br)cc1OC1CC1 [Example 43, 3-Bromo-2-(3-cyclopropoxy-4-methoxyphenyl)-1,5-dihydropyrrolo[2,3-d]pyridazin-4-one] | 293 to 296 °C (dec.)
O=c1[nH]ncc2[nH]c(-c3ccc(OC(F)F)c(OC4CC4)c3)c(-c3ccccc3)c12 [Example 17, 2-(3-Cyclopropoxy-4-difluoromethoxyphenyl)-3-phenyl-1,5-dihydropyrrolo[2,3-d]pyridazin-4-one] | 138 to 143 °C
